Assay results published in patent publication US11932850B2, “Cancer chemoprevention with STAT3 blockers” (Jill M. Siegfried, LLC, priority 2018, dated 2024).
Where “and” joins values, the source holds several entries; their conditions need not be identical. Equal values may be shown once. Entries after “also recorded” stand apart in the source; their conditions may differ.

Assays:
[1] = system: M1 macrophages, M2 macrophages, MDSCs; experiment: Flow cytometry of immune cells isolated from lungs of NNK mice; format: in vivo
From the text: STAT3 also plays a central role in immune evasion. STAT3 specifically orchestrates immunosuppression by promoting M2 macrophage and myeloid-derived suppressor cells (MDSCs) activity while suppressing M1 macrophage function [Su et al. Int. J. Mol. Science 19: pll:E1803, 2018]. Thus STAT3 inhibition by CS3D should favor an antitumor immune response by enhancing M1 macrophage activity.
Lungs from mice were digested with RPMI media containing collagenase and DNase to obtained single cell suspension. The cells were counted and 1×10^6 cells were staining with fluorescent labeled CD45, CD11b, MHC II, Ly6C and F4/80. The labeled cells were gated and data acquired on LSR fortessa (BD Biosciences) and further analysed by Flowjo.

[2] = system: NNK-induced lung preneoplasias and tumors; experiment: NNK-induced lung tumor model for chemoprevention, second experiment; format: in vivo, mice
Experimental: To confirm these findings, in a second experiment, in which 24 mg NNK was given (3 mg by ip injection, twice a wk, ×4 wks,), this was followed by one week rest and then immediate treatment with 5 mg/kg CS3D or CS3M, 3 daily injections per week, for 8 weeks. Then 1 week, 8 weeks, or 20 weeks after the end of the treatment course ([…], 21, and 33 weeks after beginning the NNK exposure), necropsy was performed. […] Lung tumors were evaluated by inspecting formalin-fixed lungs visually and by histology after H & E staining. […] Tumor burden (detected by neoplastic growths [adenomas] observed in lung sections) was also assessed at the week 1 timepoint after treatment. Consistent with reduction in preneoplasia, we observed a decrease in the average number of tumors (a 60% reduction in tumors in the CS3D-treated animal) (FIG. 14A).
The chemopreventive effect of CS3D compared to CS3M on lung tumor development was studied in an NNK-induced immunocompetent lung tumor model using the tobacco carcinogen, 4-(methylnitrosamino)-1-(3-pyridyl)-1-butanone, CAS Reg. No. 64091-91-4 (NNK) in mice. The advantages of this model are: NNK is an inducer of KRAS mutations, it is known to induce lung cancers in mice and humans, and the model is immunocompetent. In addition, this is a useful model for studying chemoprevention after exposure to a carcinogenic agent (Hecht S S, et al, Cancer Res. (1980) 40(2):298-302).
After four weeks of NNK exposure, mice are then dosed IV 2 times per week with CS3D or CS3M (5 mg/kg) for eight weeks. The mice are sacrificed after at one week, 8 weeks, and 20 weeks after the end of oligonucleotide dosing to examine lungs. Lungs are formalin-inflated and surface tumors are enumerated visually under a dissecting microscope. The area of each tumor is measured with a analysis tool built in the imaging software LAS v4.7 (Leica). Lungs are also sectioned and examined histologically by hematoxylin and eosin staining for counting the preneoplasia and tumors.

H1975 xenografts = experiment: H1975 NSCLC xenograft tumor growth; format: in vivo, nude mice; conditions: 5 mg/kg/d iv, 5 days per week, compared to CS3M
Experimental: Based on the in vitro effects of CS3D, antitumor effects were evaluated in mice harboring established NSCLC xenografts (10 tumors/group). When tumors reached 200 mm3, mice were given daily intravenous injections (tail vein) of CS3D or CS3M (5 mg/kg/d), 5 days per week, and tumor growth was monitored for 14-20 days. CS3D caused a significant and robust tumor growth inhibition in 201T- and H1975-derived xenografts compared to treatment with CS3M.
FIGS. 7A and 7B show CS3D suppresses NSCLC xenograft tumor growth. Intravenous delivery of CS3D inhibits tumor growth in both wild-type (FIG. 7A, 201T) and mutant EGFR T790M (FIG. 7B, H1975) xenografts. Approximately 1×10^6 cells were inoculated subcutaneously in the flanks of nude mice. Following the development of palpable tumors (about […]), mice were randomized and given daily injections of either CS3D or CS3M (5 mg/kg/day; 10 tumors/group). Experiments were done twice as biological replicates. Tumor volumes were recorded every other day while animal weights were also monitored during the course of the treatment. […]
All studies were approved by the University of Minnesota Institutional Animal Care and Use Committee and were carried out in accordance with institutional guidelines for animal care. […] Volumes were calculated from the formula V=(Length×Width^2)/2. […]

[3] = NNK 4 weeks then 1 week of drug administration

Substance: CS3D (DNA GATTTACGGGAAATGCSCATTTCCC; cyclic decoy with two hexaethylene glycol linkers, further chemistry not given here)
- M2 macrophages [1, 3]: 5.53%
- MDSCs [1, 3]: 14.2%
- proportion of M1 macrophages in the lung TME ([1]; NNK 4 weeks then 1 week of drug, vs CS3M): increasing
- toxicity (body weight, behavior, liver and spleen) ([2]; 5 mg/kg for 8 weeks): no body weight changes were observed; also recorded: no toxicity observed
- higher count of preneoplasia ([2]; 8 weeks after treatment ended, vs CS3M): 43%
- lower number of adenomas ([2]; 8 weeks post-treatment, vs CS3M): 52%
- reduction in average number of tumors per animal ([2]; 20 weeks after end of treatment, vs CS3M): approximately 40% and 42%
- lower tumor size ([2]; 20 weeks post-treatment, vs CS3M): 49.8% and 50%
- fewer preneoplasias on average per animal ([2]; week 1 after 8 week treatment, 5 mg/kg, vs CS3M): approximately 25%
- reduction in average number of tumors ([2]; week 1 after 8 week treatment, vs CS3M): 60%
- reduction in tumor growth (tumor volume) (H1975 xenografts): 81.7%
